The assay deals with BDF1 mice, B16 melanoma ip, median survival T/C. Briefly: NCI In Vivo Anticancer Drug Screen. Data for tumor model B16 Melanoma (intraperitoneal) in B6D2F1 (BDF1) mice. The following applies: endpoint: median survival time, higher = longer survival. The method in brief:
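Vehicle-treated animals serve as the reference (C); treated animals (T) are scored for survival or tumor size after tumor transplantation.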

Setting [1] is: dose: 50.0 mg/kg/injection, schedule: Q04DX003 (ip), vehicle: saline.
Where [2] appears, read: dose: 200.0 mg/kg/injection, schedule: Q04DX003 (ip), vehicle: saline.
Where [3] appears, read: dose: 12.5 mg/kg/injection, schedule: Q01DX009 (ip), vehicle: saline with Tween-80.
[4] abbreviates: dose: 25.0 mg/kg/injection, schedule: Q01DX009 (ip), vehicle: saline with Tween-80.
Where [5] appears, read: dose: 50.0 mg/kg/injection, schedule: Q01DX009 (ip), vehicle: saline with Tween-80.
The mark [6] stands for this setting: dose: 100.0 mg/kg/injection, schedule: Q01DX009 (ip), vehicle: saline with Tween-80.
Where [7] appears, read: dose: 200.0 mg/kg/injection, schedule: Q01DX009 (ip), vehicle: saline with Tween-80.
Setting [8] is: dose: 400.0 mg/kg/injection, schedule: Q01DX009 (ip), vehicle: saline with Tween-80.
The mark [9] stands for this setting: dose: 100.0 mg/kg/injection, schedule: Q04DX003 (ip), vehicle: saline with Tween-80.
The mark [10] stands for this setting: dose: 200.0 mg/kg/injection, schedule: Q04DX003 (ip), vehicle: saline with Tween-80.
[11] abbreviates: dose: 100.0 mg/kg/injection, schedule: Q01DX009 (ip), vehicle: saline.
[12] abbreviates: dose: 100.0 mg/kg/injection, schedule: Q01DX009 (ip), vehicle: Klucel (hydroxypropylcellulose) (HPC).
Setting [13] is: dose: 200.0 mg/kg/injection, schedule: Q01DX009 (ip), vehicle: Klucel (hydroxypropylcellulose) (HPC).

Several values for one entry are separate records, joined by “and”; a condition that tells them apart may be missing. Equal entries are not always repeated. Toxic doses and inconclusive results are not listed.

On to `O=C(/C=C/c1ccccc1)CC(O)(C(F)(F)F)C(F)(F)F`, for which the T/C is, setting by setting: (dose: 100.0 mg/kg/injection, schedule: Q04DX003 (sc), vehicle: olive oil, sesame oil, peanut oil) 90 % of control; (dose: 200.0 mg/kg/injection, schedule: Q04DX003 (sc), vehicle: olive oil, sesame oil, peanut oil) 95 % of control; (dose: 400.0 mg/kg/injection, schedule: Q04DX003 (sc), vehicle: olive oil, sesame oil, peanut oil) 90 % of control.

Regarding `COc1cc(C(=O)Nc2ccc(N(C)C)cc2)cc(OC)c1OC`, the T/C (dose: 12.5 mg/kg/injection, schedule: Q04DX003 (ip), vehicle: saline) was 119 % of control; the T/C under setting [1] is 116 % of control; the T/C under setting [2] was 108 % of control.

Consider `Cc1ncc([N+](=O)[O-])n1CCSC(N)=O`, for which the T/C runs as follows: under setting [3], 97 % of control and 99 % of control; under setting [4], 95 % of control and 102 % of control; under setting [5], 101 % of control; under setting [6], 97 % of control and 101 % of control; under setting [7], 91 % of control and 96 % of control; under setting [8], 92 % of control.

As for `O=[N+]([O-])c1ccc(NCCO)c([N+](=O)[O-])c1`, the T/C by setting is: under setting [5], 100 % of control; under setting [6], 100 % of control; under setting [9], 94 % of control; under setting [7], 92 % of control; under setting [10], 89 % of control.

As for `Cc1n(CC(C)C)c2c([n+]1CC(=O)c1ccc([N+](=O)[O-])cc1)C(=O)c1ccccc1C2=O`, the T/C runs as follows: (dose: 0.1 mg/kg/injection, schedule: Q01DX009 (ip), vehicle: saline) 95 % of control; (dose: 0.2 mg/kg/injection, schedule: Q01DX009 (ip), vehicle: saline) 97 % of control; (dose: 0.4 mg/kg/injection, schedule: Q01DX009 (ip), vehicle: saline) 97 % of control; (dose: 0.8 mg/kg/injection, schedule: Q01DX009 (ip), vehicle: saline) 88 % of control; (dose: 1.2 mg/kg/injection, schedule: Q01DX009 (ip), vehicle: Klucel (hydroxypropylcellulose) (HPC)) 93 % of control; (dose: 1.25 mg/kg/injection, schedule: Q01DX009 (ip), vehicle: saline with Tween-80) 86 % of control. The T/C was 93 % of control (dose: 1.8 mg/kg/injection, schedule: Q01DX009 (ip), vehicle: Klucel (hydroxypropylcellulose) (HPC)); 86 % of control (dose: 2.5 mg/kg/injection, schedule: Q01DX009 (ip), vehicle: saline with Tween-80); 87 % of control (dose: 3.0 mg/kg/injection, schedule: Q01DX009 (ip), vehicle: Klucel (hydroxypropylcellulose) (HPC)); 93 % of control (dose: 5.0 mg/kg/injection, schedule: Q01DX009 (ip), vehicle: Klucel (hydroxypropylcellulose) (HPC)).

Turning to `Cn1nc(-c2ccccc2)nc1[N+](=O)[O-]`, the T/C was 100 % of control under setting [3], 96 % of control under setting [4], 106 % of control under setting [5] and 86 % of control under setting [6].

`C=CS(=O)(=O)c1ccccc1`: the T/C was 96 % of control under setting [3], 94 % of control under setting [4] and 98 % of control under setting [5].

Turning to `CC[C@H]1CN2CCc3cc(OC)c(OC)cc3[C@@H]2C[C@@H]1C[C@H]1NCCc2cc(OC)c(OC)cc21`, the T/C is, setting by setting: (dose: 0.87 mg/kg/injection, schedule: Q01DX009 (ip), vehicle: saline) 103 % of control and 104 % of control; (dose: 1.75 mg/kg/injection, schedule: Q01DX009 (ip), vehicle: saline) 100 % of control and 103 % of control; (dose: 3.5 mg/kg/injection, schedule: Q01DX009 (ip), vehicle: saline) 105 % of control and 111 % of control; (dose: 7.0 mg/kg/injection, schedule: Q01DX009 (ip), vehicle: saline) 116 % of control; (dose: 7.8 mg/kg/injection, schedule: Q04DX003 (ip), vehicle: saline) 108 % of control; (dose: 11.2 mg/kg/injection, schedule: Q04DX003 (ip), vehicle: saline) 98 % of control. For the same compound, the T/C reads like this: (dose: 16.0 mg/kg/injection, schedule: Q04DX003 (ip), vehicle: saline) 107 % of control; (dose: 22.9 mg/kg/injection, schedule: Q04DX003 (ip), vehicle: saline) 104 % of control.

Turning to `O=C(c1ccccc1)c1cc([N+](=O)[O-])cc([N+](=O)[O-])c1`, the T/C under setting [6] was 97 % of control, the T/C under setting [7] was 91 % of control and the T/C under setting [8] is 89 % of control.

Consider `O=C(NCCCN1CCN(CCCNC(=O)c2cccnc2)CC1)c1cccnc1`, for which the T/C was 107 % of control (dose: 6.25 mg/kg/injection, schedule: Q01DX009 (ip), vehicle: saline); 107 % of control (dose: 12.5 mg/kg/injection, schedule: Q01DX009 (ip), vehicle: saline); 112 % of control (dose: 25.0 mg/kg/injection, schedule: Q01DX009 (ip), vehicle: saline); 104 % of control (dose: 50.0 mg/kg/injection, schedule: Q01DX009 (ip), vehicle: saline); 95 % of control under setting [11].

With `CCNCCC#N`, the T/C (dose: 80.0 mg/kg/injection, schedule: Q01DX009 (ip), vehicle: saline) is 113 % of control; the T/C (dose: 160.0 mg/kg/injection, schedule: Q01DX009 (ip), vehicle: saline) was 119 % of control; the T/C (dose: 320.0 mg/kg/injection, schedule: Q01DX009 (ip), vehicle: saline) is 105 % of control.

As for `O=C(C=P(c1ccccc1)(c1ccccc1)c1ccccc1)c1ccccc1`, the T/C runs as follows: under setting [9], 102 % of control; under setting [10], 102 % of control; (dose: 400.0 mg/kg/injection, schedule: Q04DX003 (ip), vehicle: saline with Tween-80) 102 % of control.

As for `CC1=CC(=O)C(O)C2(C)C1CC(O)C13COC4(C)C(OC(=O)C41)C(O)C23` (stereo not given), the T/C (dose: 1.0 mg/kg/injection, schedule: Q01DX009 (ip), vehicle: saline with Tween-80) was 97 % of control; the T/C (dose: 2.0 mg/kg/injection, schedule: Q01DX009 (ip), vehicle: saline with Tween-80) was 101 % of control; the T/C (dose: 4.0 mg/kg/injection, schedule: Q01DX009 (ip), vehicle: saline with Tween-80) is 97 % of control.

In the case of `O=C(O)CC(NC(=O)CP(=O)(O)O)C(=O)O.[NH-]C1CCCCC1[NH-].[Pt+2]` (stereo not given), the T/C is 122 % of control (dose: 0.4 mg/kg/injection, schedule: Q01DX009 (ip), vehicle: dextrose); 154 % of control (dose: 0.78 mg/kg/injection, schedule: Q01DX009 (ip), vehicle: dextrose); 165 % of control (dose: 1.56 mg/kg/injection, schedule: Q01DX009 (ip), vehicle: dextrose); 123 % of control (dose: 3.0 mg/kg/injection, schedule: Q01DX009 (ip), vehicle: dextrose); 163 % of control (dose: 3.2 mg/kg/injection, schedule: Q01DX009 (ip), vehicle: dextrose).

Consider `OC1CCCC2CCCNC12` (stereo not given), for which the T/C reads like this: (dose: 3.12 mg/kg/injection, schedule: Q01DX009 (ip), vehicle: saline with Tween-80) 100 % of control; (dose: 6.25 mg/kg/injection, schedule: Q01DX009 (ip), vehicle: saline with Tween-80) 108 % of control; under setting [3], 99 % of control; under setting [4], 96 % of control; under setting [5], 96 % of control.

For the compound `Oc1c(Br)cc(Br)cc1/C=N/N=C/c1cc(Br)cc(Br)c1O`, the T/C under setting [12] was 90 % of control and the T/C under setting [13] is 87 % of control.

As for `C1CCC(C2OCCO2)CC1`, the T/C is 90 % of control under setting [1]; 113 % of control under setting [11]; 95 % of control (dose: 100.0 mg/kg/injection, schedule: Q04DX003 (ip), vehicle: saline); 97 % of control (dose: 200.0 mg/kg/injection, schedule: Q01DX009 (ip), vehicle: saline); 90 % of control under setting [2].

Take `Cc1cccc(C)c1NC(=O)Nc1cccc(Cl)c1`: the T/C was 100 % of control under setting [12]; 100 % of control (dose: 100.0 mg/kg/injection, schedule: Q04DX003 (ip), vehicle: Klucel (hydroxypropylcellulose) (HPC)); 100 % of control under setting [13]; 100 % of control (dose: 200.0 mg/kg/injection, schedule: Q04DX003 (ip), vehicle: Klucel (hydroxypropylcellulose) (HPC)); 86 % of control (dose: 400.0 mg/kg/injection, schedule: Q01DX009 (ip), vehicle: Klucel (hydroxypropylcellulose) (HPC)); 100 % of control (dose: 400.0 mg/kg/injection, schedule: Q04DX003 (ip), vehicle: Klucel (hydroxypropylcellulose) (HPC)).

In the case of `O=CNC(Cc1ccccc1)C(=O)O` (stereo not given), the T/C is, setting by setting: under setting [5], 106 % of control; under setting [6], 92 % of control; under setting [7], 89 % of control.

Values taken from PubChem BioAssay AID192 (DTP/NCI, 2004).
